One assay concerns tubulin. Description: HTS-Tubulin Polymerization Assay Kit, tubulin polymerization in vitro. Type of assay: biochemical. The conditions noted are these: for inhibition of tubulin polymerization compared with the PBS buffer: Example 6, 1 μM stock of test substance, 4 mg/mL tubulin, 37° C., 405 nm. On the procedure:
The effect of 3AA-MDC, 206-3AA-MDC and the metabolites (Cys-3AA-MDC and Lys-mcc-MDC) of prodrug antibody maytansinoid conjugates on the tubulin polymerization in vitro was assessed by HTS-Tubulin Polymerization Assay Kit (BK004P, Cytoskeleton, Inc., USA). According to the instruction of kit, pre-warm the 96-well plate to 37° C. for 30 min prior to starting the assay. At the same time, the spectrophotometer (SpectraMax, Molecular Devices, USA) was set as follow: wavelength, 405 nm; temperature, 37° C.; Kinetic, 31 cycles of 1 reading per minute. Make cold G-PEM buffer (990 μL General Tubulin Buffer+10 μL GTP Stock) and keep it on ice. Prepare 4 mg/mL tubulin, 1 μM L-3AA-MDC (N2′-deacetyl-N2′-(6-maleimido-1-oxo-hexyl)maytansine), 1 μM 206-3AA-MDC, 1 μM cys-3AA-MDC, 1 μM lys-mcc-MDC, 100 μM Paclitaxel, and 100 μM Nocodazole. Add 10 μL G-PEM, 3AA-MDC, 206-3AA-MDC, cys-3AA-MDC, lys-mcc-MDC, Paclitaxel, Nocodazole into the wells, and then add 100 μL 4 mg/ml tubulin to each well. Immediately place the plate into the spectrophotometer and start recording using the kinetic setup described above. […] Nocodazole, the tubulin polymerization inhibitor, was set as a negative control. The metabolite Cys-3AA-MDC was prepared by reaction of 3AA-MDC with cysteine under the base DIEA in CH2Cl2. […] The metabolite Lys-MCC-MDC was prepared by reaction of SMCC-MDC with lysine under the base DIEA in DMF.
The effect of 3AA-MDC and related metabolites on the tubulin polymerization in vitro was assessed by HTS-Tubulin Polymerization Assay Kit (BK004P, Cytoskeleton, Inc., USA). According to the instruction of kit, pre-warm the 96-well plate to 37° C. for 30 min prior to starting the assay. At the same time, the spectrophotometer (SpectraMax, Molecular Devices, USA) was set as follow: wavelength, 405 nm; temperature, 37° C.; Kinetic, 31 cycles of 1 reading per minute. Make cold G-PEM buffer (990 μL General Tubulin Buffer+10 μL GTP Stock) and keep it on ice. Prepare 4 mg/ml tubulin, 200 nM L-3AA-MDC (N2′-deacetyl-N2′-(6-maleimido-1-oxo-hexyl)maytansine), or related compounds cys-3AA-MDC, or lys-mcc-MDC, 100 μM Paclitaxel, 100 μM Nocodazole, and 1 μM 206-3AA-MDC (3AA-MDC-antibody). Add 10 μL G-PEM, 3AA-MDC, Paclitaxel, Nocodazole and 206-3AA-MDC or related metabolites into the wells, and then add 100 μL 4 mg/ml tubulin to each well. Immediately place the plate into the spectrophotometer and start recording using the kinetic setup described above.

Assay [1] deals with human acute lymphoblastic leukemia line C.E.M. The conditions noted are these: Wolpert-DeFillippes et al. 1975; cited from earlier work.

`COC(=O)Nc1nc2ccc(C(=O)c3cccs3)cc2[nH]1` [Nocodazole]: the “relative activity of tubulin polymerization, decreased” value in the assay on tubulin (Example 7, 100 μM stock) is reported as 2.5 fold. Consider `CC(=O)O[C@H]1C(=O)[C@@]2(C)[C@H]([C@H](OC(=O)c3ccccc3)[C@]3(O)C[C@H](OC(=O)[C@H](O)[C@@H](NC(=O)c4ccccc4)c4ccccc4)C(C)=C1C3(C)C)[C@]1(OC(C)=O)CO[C@@H]1C[C@@H]2O` [Paclitaxel], for which the “relative activity of tubulin polymerization, enhanced” value with tubulin (Example 7, 100 μM stock) was “about 3 fold”. For the molecule `COc1cc2cc(c1Cl)N(C)C(=O)C[C@H](OC(=O)[C@H](C)N(C)C(=O)CCSC1CC(=O)N(CC3CCC(C(=O)NCCCC[C@H](N)C(=O)O)CC3)C1=O)[C@]1(C)O[C@H]1[C@H](C)[C@@H]1C[C@@](O)(NC(=O)O1)[C@H](OC)/C=C/C=C(\C)C2` (stereo partly drawn) [Lys-mcc-MDC], the “inhibition of tubulin polymerization compared with the PBS buffer” value in the assay with tubulin is on record as “more significantly inhibited”. For `COc1cc2cc(c1Cl)N(C)C(=O)C[C@H](OC(=O)[C@H](C)N(C)C(C)=O)[C@]1(C)O[C@H]1[C@H](C)[C@@H]1C[C@@](O)(NC(=O)O1)[C@H](OC)/C=C/C=C(\C)C2` [Maytansine], in assay [1], the “inhibitory concentration, as low as” value is 10^−7 µg/mL. With `COc1cc2cc(c1Cl)N(C)C(=O)C[C@H](OC(=O)[C@H](C)N(C)C(=O)CCCCCN1C(=O)C=CC1=O)[C@]1(C)OC1[C@H](C)[C@@H]1C[C@@](O)(NC(=O)O1)[C@H](OC)/C=C/C=C(\C)C2` (stereo partly drawn) [3AA-MDC, N2′-deacetyl-N2′-(6-maleimido-1-oxo-hexyl)-maytansine], the “inhibition of tubulin polymerization compared with the PBS buffer” value in the assay with tubulin was “more significantly inhibited”. The “inhibition of tubulin polymerization” value in the assay with tubulin (Example 7, 200 nM stock, FIG. 1) was “more significantly inhibited”.

The values are drawn from patent publication US9737616B2, “Compounds and methods for the treatment of ERB B2/NEU positive diseases” (Bio-Thera Solutions, Ltd., Co., priority 2012, dated 2017).
